Common to all, as to type: functional
Assay [1] can be described thus: Cytotoxicity against human SKOV3 cells assessed as cell growth at 10 uM after 72 hrs by SRB assay relative to control. Conditions: SK-OV-3, 72 h, read-out: Activity. In general terms: Sulforhodamine B stains cellular protein and so reports cell mass.
Assay [2] in a line: Cytotoxicity against human SF268 cells assessed as cell growth at 10 uM after 72 hrs by SRB assay relative to control. Conditions: SF-268, 72 h, read-out: Activity.
Assay [3] in a line: Cytotoxicity against human MOLT4 cells assessed as cell growth at 10 uM after 72 hrs by SRB assay relative to control. Conditions: MOLT-4, 72 h, read-out: Activity.
In assay [4] the test system is 786-0. Put plainly: Cytotoxicity against human 786-0 cells assessed as cell growth at 10 uM after 72 hrs by SRB assay relative to control. Conditions: 786-0, 72 h, read-out: Activity.
A short description of assay [5]: Cytotoxicity against human UACC62 cells assessed as cell growth at 10 uM after 72 hrs by SRB assay relative to control. Conditions: UACC-62, 72 h, read-out: Activity.
Assay [6] relates to MDA-MB-435. Put plainly: Cytotoxicity against human MDA-MB-435 cells assessed as cell growth at 10 uM after 72 hrs by SRB assay relative to control. Conditions: MDA-MB-435, 72 h, read-out: Activity.
Assay [7] can be described thus: Cytotoxicity against human IGROV1 cells assessed as cell growth at 10 uM after 72 hrs by SRB assay relative to control. Conditions: IGROV-1, 72 h, read-out: Activity.
Assay [8] has as its system NCI-H226. Put plainly: Cytotoxicity against human NCI-H226 cells assessed as cell growth at 10 uM after 72 hrs by SRB assay relative to control. Conditions: NCI-H226, 72 h, read-out: Activity.
The subject of assay [9] is MCF7. As to the kind of experiment: Cytotoxicity against human MCF7 cells assessed as cell growth at 10 uM after 72 hrs by SRB assay relative to control. Conditions: MCF7, 72 h, read-out: Activity.
Assay [10] deals with ACHN. As to the kind of experiment: Cytotoxicity against human ACHN cells assessed as cell growth at 10 uM after 72 hrs by SRB assay relative to control. As to conditions: read-out: Activity.
Assay [11] can be described thus: Cytotoxicity against human RXF393 cells assessed as cell growth at 10 uM after 72 hrs by SRB assay relative to control. Conditions: RXF 393, 72 h, read-out: Activity.
Assay [12] deals with K562. As to the kind of experiment: Cytotoxicity against human K562 cells assessed as cell growth at 10 uM after 72 hrs by SRB assay relative to control. Conditions: K562, 72 h, read-out: Activity.
The nature of assay [13]: Cytotoxicity against human SF295 cells assessed as cell growth at 10 uM after 72 hrs by SRB assay relative to control. Conditions: SF-295, 72 h, read-out: Activity.
The subject of assay [14] is U-251. As to the kind of experiment: Cytotoxicity against human U251 cells assessed as cell growth at 10 uM after 72 hrs by SRB assay relative to control. Conditions: U-251, 72 h, read-out: Activity.
Assay [15] in a line: Cytotoxicity against human SNB75 cells assessed as cell growth at 10 uM after 72 hrs by SRB assay relative to control. Conditions: SNB-75, 72 h, read-out: Activity.
Assay [16] relates to SK-MEL-28. As to the kind of experiment: Cytotoxicity against human SK-MEL-28 cells assessed as cell growth at 10 uM after 72 hrs by SRB assay relative to control. As to conditions: SK-MEL-28, 72 h, read-out: Activity.
In assay [17] the test system is M14. As to the kind of experiment: Cytotoxicity against human M14 cells assessed as cell growth at 10 uM after 72 hrs by SRB assay relative to control. As to conditions: M14, 72 h, read-out: Activity.
The nature of assay [18]: Cytotoxicity against human NCI-ADR-RES cells assessed as cell growth at 10 uM after 72 hrs by SRB assay relative to control. As to conditions: read-out: Activity.
A short description of assay [19]: Cytotoxicity against human HOP62 cells assessed as cell growth at 10 uM after 72 hrs by SRB assay relative to control. Conditions: HOP-62, 72 h, read-out: Activity.
Assay [20] can be described thus: Cytotoxicity against human Hs 578T cells assessed as cell growth at 10 uM after 72 hrs by SRB assay relative to control. As to conditions: read-out: Activity.
In assay [21] the test system is CCRF-CEM. Put plainly: Cytotoxicity against human CCRF-CEM cells assessed as cell growth at 10 uM after 72 hrs by SRB assay relative to control. Conditions: read-out: Activity.
Assay [22] deals with SK-MEL-2. As to the kind of experiment: Cytotoxicity against human SK-MEL-2 cells assessed as cell growth at 10 uM after 72 hrs by SRB assay relative to control. Conditions: SK-MEL-2, 72 h, read-out: Activity.

For the molecule `Clc1ccc(-n2ncc3c(Nc4ccc(OCc5ccccc5)cc4)ncnc32)cc1`, the growth at 10 µM was 99.7% in [1]; 99.7% in assay [2]; 89.6% in assay [3]; 103% in [4]; 105% in assay [5]; 83.2% in assay [6]. Also, the growth at 10 µM in assay [7] turned out to be 102%; in assay [8], 102%; in assay [9] it was 95.9%; in assay [10], 98.6%; in assay [11] it was 97.8%; in assay [12] it was 87.3%. Further, the growth at 10 µM in [13] stood at 97.8%; in [14], 95%; in assay [15], 86.4%; in assay [16], 90.4%; in [17] it was 93.6%; in [18], 94.5%. For the same molecule, the growth at 10 µM was found to be 81.6% in [19], 96.6% in assay [20] and 78.9% in assay [21].
For the molecule `c1ccc(COc2ccc(Nc3ncnc4c3cnn4-c3ccccc3)cc2)cc1`, the growth at 10 µM was determined as 108% in [1]; 115% in assay [22]; 108% in [2]; 93.1% in assay [3]; 100% in [4]; 93.3% in assay [5]. The growth at 10 µM was determined as 90.1% in [6]; 100% in assay [7]; 103% in assay [8]; 100% in assay [9]; 104% in [10]; 102% in [11]. For the same molecule, the growth at 10 µM was 90.3% in [12]; 107% in assay [13]; 106% in assay [14]; 102% in assay [15]; 96% in assay [16]; 101% in assay [17]. For the same molecule, the growth at 10 µM in assay [18] is 107%; in [19], 104%; in [20], 109%; in assay [21] it was 80.8%.
Turning to `Cc1ccc2nc(Nc3ncnc4c3cnn4-c3ccccc3)sc2c1`, the growth at 10 µM in assay [1] came to 112%; in assay [22], 109%; in assay [2] it was 114%; in [3], 102%; in [4], 103%; in [5] it was 94.7%. The growth at 10 µM stood at 91.9% in assay [6]; 99.6% in assay [7]; 101% in assay [8]; 97.2% in assay [9]; 107% in assay [10]; 99% in assay [11]. The growth at 10 µM came to 102% in assay [12]; 99.8% in [13]; 103% in assay [14]; 107% in assay [15]; 95.3% in assay [16]; 107% in assay [17]. The growth at 10 µM in assay [18] stood at 106%; in assay [19] it was 110%; in [20], 120%; in assay [21], 87.9%.
Take `O=c1sc2cc(Nc3ncnc4c3cnn4-c3ccccc3)ccc2n1Cc1ccc(Cl)cc1`: the growth at 10 µM in assay [1] was determined as 101%; in assay [22] it was 88%; in [2] it was 85.6%; in [3], 58.6%; in [4], 93.7%; in [5], 58.3%. Besides, the growth at 10 µM in [6] was found to be 84.2%; in assay [7], 81.8%; in assay [8], 71.4%; in assay [9], 85.3%; in [10] it was 74.6%; in assay [11], 79.5%. In addition, the growth at 10 µM in [12] amounted to 49.6%; in assay [13], 87.2%; in assay [14], 96.6%; in assay [15], 88.3%; in assay [16], 90.1%; in assay [17] it was 82.8%. Also, the growth at 10 µM in assay [18] was determined as 84.8%; in assay [19], 94%; in [20], 81.1%; in assay [21] it was 63.6%.

The values above are taken from ChEMBL document CHEMBL3751764, “Synthesis and in vitro antiproliferative activity of novel pyrazolo[3,4-d]pyrimidine derivatives” (Medchemcomm, 2015).
